{"source": "patent US6555541B1", "about": "“Substituted phenyl compounds with immunosuppressing activity and pharmaceutical compositions” (Astrazeneca UK Limited, priority 2000, dated 2003)", "note": "Counter-ions that a name gives are not always drawn.", "data": [{"values": [{"smiles": "Cc1c(Cn2ccnc2)cccc1NC(=O)CNc1ccc(F)c(F)c1", "note": "[Example 17, 2-(3,4-Difluorophenylamino)-N-(3-imidazol-1-ylmethyl-2-methylphenyl)acetamide]", "melting point": "160 °C (dec.)"}, {"smiles": "Cc1c(CN(C)C)cccc1NC(=O)CNc1ccc(F)c(F)c1", "note": "[Example 18, 2-(3,4-Difluorophenylamino)-N-(3-dimethylaminomethyl-2-methylphenyl)acetamide]", "melting point": "144 °C (dec.)"}, {"smiles": "Cc1ccc(CN2CCNCC2)cc1NC(=S)CNc1ccc(F)c(F)c1", "note": "[Example 2, 2-(3,4-Difluoro-phenylamino)-N-(2-methyl-5-piperazin-1-ylmethyl-phenyl)-thioacetamide]", "melting point": "72 to 82 °C (dec.)"}, {"smiles": "Cc1cc(N2CCNCC2)ccc1NC(=O)CNc1ccc(F)c(F)c1", "note": "(as salt: hydrochloride) [Example 10, 2-(3,4-Difluoro-phenylamino)-N-(2-methyl-5-piperazin-1-yl-phenyl)-acetaniide, trihydrochloride]", "melting point": "> 230 °C"}, {"smiles": "Cc1ccc(CN2CCNCC2)cc1NC(=O)CNc1ccc(F)c(F)c1", "note": "(as salt: hydrochloride) [Example 1, 2-(3,4-Difluorophenylano)-N-(2-methyl-5-piperazin-1-ylmethyl-phenyl)-acetamide, trihydrochloride]", "melting point": "232 to 248 °C (dec.)"}, {"smiles": "O=C(CNc1ccc(F)c(F)c1)Nc1cc(N2CCNCC2)ccc1Cl", "note": "(as salt: hydrochloride)", "melting point": "240 °C (dec.)"}]}]}
